In patent US20070128217A1 (priority 2003, published 2007):

Columns and labels:
[1] = system: antibodies in sera from SARS patients (sera 1a, 1b, 2, 6, 37, 62, London, SARS-yellow, SARS-green); type: binding, human; parameters: Binding of serum 6 to linear peptides of protein X1 of SARS-CoV Urbani / Binding of serum 37 to linear peptides of protein X1 of SARS-CoV Urbani / Binding of serum 6 to looped/cyclic peptide (PEPSCAN-ELISA) / Binding of serum 37 to looped/cyclic peptide (PEPSCAN-ELISA) / Binding of serum 37 to looped/cyclic peptides of protein X1 of SARS-CoV Urbani / Binding of serum 6 to linear peptides of protein X2 / Binding of serum 37 to linear peptides of protein X2 / Binding of serum 37 to looped/cyclic peptides of protein X2 of SARS-CoV Urbani / Binding of serum 6 to linear peptides of protein M of SARS-CoV Urbani / Binding of serum 37 to linear peptides of protein M of SARS-CoV Urbani / Binding of serum 6 to looped/cyclic peptides of protein M of SARS-CoV Urbani / Binding of serum 37 to looped/cyclic peptides of protein M of SARS-CoV Urbani / Binding of serum 6 to linear peptides of protein X3 of SARS-CoV Urbani / Binding of serum 37 to linear peptides of protein X3 of SARS-CoV Urbani / Binding of serum 37 to looped/cyclic peptides of protein X3 of SARS-CoV Urbani / Binding of serum 6 to linear peptides of protein X4 of SARS-CoV Urbani / Binding of serum 37 to linear peptides of protein X4 of SARS-CoV Urbani / Binding of serum 37 to looped/cyclic peptides of protein X4 of SARS-CoV Urbani / Binding of serum 6 to linear peptides of protein X5 of SARS-CoV Urbani / Binding of serum 37 to linear peptides of protein X5 of SARS-CoV Urbani / Binding of serum 37 to looped/cyclic peptides of protein X5 of SARS-CoV Urbani / Binding of serum 6 to linear peptides of protein N of SARS-CoV Urbani / Binding of serum 37 to linear peptides of protein N of SARS-CoV Urbani / Binding of serum 6 to linear peptide (PEPSCAN-ELISA) / Binding of serum 1a to looped/cyclic peptides of protein N of SARS-CoV Urbani / Binding of serum 1b to looped/cyclic peptides of protein N of SARS-CoV Urbani / Binding of serum 2 to looped/cyclic peptides of protein N of SARS-CoV Urbani / Binding of serum 6 to looped/cyclic peptides of protein N of SARS-CoV Urbani / Binding of serum 37 to looped/cyclic peptides of protein N of SARS-CoV Urbani / Binding of serum 62 to looped/cyclic peptides of protein N of SARS-CoV Urbani / Binding of serum London to looped/cyclic peptides of protein N of SARS-CoV Urbani / Binding of serum SARS-green to looped/cyclic peptides of protein N of SARS-CoV Urbani: unit not given here
[2] = system: control sera (pooled serum of ten healthy LUMC hospital workers; commercial negative donor pooled serum from the Dutch bloodbank); type: binding, human; parameters: Binding of Control serum LUMC to linear peptides / Binding of Control serum Blood-bank to linear peptides / Binding of Control serum LUMC to looped peptides / Binding of Control Serum Blood-Bank to Looped peptides / Binding of Control serum LUMC to linear peptides of the protein M of SARS-CoV Urbani / Binding of Control serum Blood-bank to linear peptides of the protein M of SARS-CoV Urbani / Binding of Control serum LUMC to looped peptides of the protein M of SARS-CoV Urbani / Binding of Control Serum Blood-Bank to Looped peptides of the protein M of SARS-CoV Urbani: unit not given here
[3] = system: rabbit serum obtained by immunizing a rabbit with the SARS-CoV strain Frankfurt 1; type: binding; parameters: Binding of a rabbit serum to linear peptides / Binding of a rabbit serum to looped peptides / Rabbit serum linear peptides / Rabbit serum looped peptides / Binding of a rabbit serum to linear peptides of protein N of SARS-CoV Urbani (Rabbit serum linear peptides) / Binding of a rabbit serum to looped/cyclic peptides of protein N of SARS-CoV Urbani (Rabbit serum looped peptides): unit not given here

## NPETNILLNVPLRGT
[1]
  Binding of serum 1a to linear peptides of protein M of SARS-CoV Urbani: 0.8
  Binding of serum 1a to looped/cyclic peptides of protein M of SARS-CoV Urbani: 0.8
  Binding of serum 1b to linear peptides of protein M of SARS-CoV Urbani: 0.6
  Binding of serum 1b to looped/cyclic peptides of protein M of SARS-CoV Urbani: 0.7
  Binding of serum 2 to linear peptides of protein M of SARS-CoV Urbani: 0.8
  Binding of serum 2 to looped/cyclic peptides of protein M of SARS-CoV Urbani: 0.9
  Binding of serum 6 to linear peptides of protein M of SARS-CoV Urbani: 0.3
  Binding of serum 6 to looped/cyclic peptides of protein M of SARS-CoV Urbani: 0.7
  Binding of serum 37 to linear peptides of protein M of SARS-CoV Urbani: 0.9
  Binding of serum 37 to looped/cyclic peptides of protein M of SARS-CoV Urbani: 0.7
  Binding of serum 62 to linear peptides of protein M of SARS-CoV Urbani: 0.9
  Binding of serum 62 to looped/cyclic peptides of protein M of SARS-CoV Urbani: 0.7
  Binding of serum London to linear peptides of protein M of SARS-CoV Urbani: 0.3
  Binding of serum London to looped/cyclic peptides of protein M of SARS-CoV Urbani: 0.3
  Binding of serum SARS-green to linear peptides of protein M of SARS-CoV Urbani: 0.3
  Binding of serum SARS-green to looped/cyclic peptides of protein M of SARS-CoV Urbani: 0.4
  Binding of serum SARS-yellow to linear peptides of protein M of SARS-CoV Urbani: 0.1
  Binding of serum SARS-yellow to looped/cyclic peptides of protein M of SARS-CoV Urbani: 0.7
[2]
  Binding of Control Serum Blood-Bank to Looped peptides of the protein M of SARS-CoV Urbani: 0.8
  Binding of Control serum Blood-bank to linear peptides of the protein M of SARS-CoV Urbani: 0.7
  Binding of Control serum LUMC to linear peptides of the protein M of SARS-CoV Urbani: 0.4
  Binding of Control serum LUMC to looped peptides of the protein M of SARS-CoV Urbani: 0.9
[3]
  Rabbit serum linear peptides: 0.4
  Rabbit serum looped peptides: 0.2

## NPLLYDANYFVCWHT
[1]
  Binding of serum 1a to linear peptides of protein X1 of SARS-CoV Urbani: 0.9
  Binding of serum 1a to looped/cyclic peptide (PEPSCAN-ELISA): 0.5
  Binding of serum 1b to linear peptides of protein X1 of SARS-CoV Urbani: 0.6
  Binding of serum 1b to looped/cyclic peptide (PEPSCAN-ELISA): 0.4
  Binding of serum 2 to linear peptides of protein X1 of SARS-CoV Urbani: 0.6
  Binding of serum 2 to looped/cyclic peptide (PEPSCAN-ELISA): 0.4
  Binding of serum 6 to linear peptides of protein X1 of SARS-CoV Urbani: 0.5
  Binding of serum 6 to looped/cyclic peptide (PEPSCAN-ELISA): 0.3
  Binding of serum 37 to linear peptides of protein X1 of SARS-CoV Urbani: 0.8
  Binding of serum 37 to looped/cyclic peptide (PEPSCAN-ELISA): 0.5
  Binding of serum 62 to linear peptides of protein X1 of SARS-CoV Urbani: 0.7
  Binding of serum 62 to looped/cyclic peptide (PEPSCAN-ELISA): 0.6
  Binding of serum London to linear peptides of protein X1 of SARS-CoV Urbani: 0.3
  Binding of serum London to looped/cyclic peptide (PEPSCAN-ELISA): 0.2
  Binding of serum SARS-green to linear peptides of protein X1 of SARS-CoV Urbani: 0.4
  Binding of serum SARS-green to looped/cyclic peptide (PEPSCAN-ELISA): 0.3
  Binding of serum SARS-yellow to linear peptides of protein X1 of SARS-CoV Urbani: 0.4
  Binding of serum SARS-yellow to looped/cyclic peptide (PEPSCAN-ELISA): 0.4
[2]
  Binding of Control Serum Blood-Bank to Looped peptides: 0.7
  Binding of Control serum Blood-bank to linear peptides: 0.6
  Binding of Control serum LUMC to linear peptides: 0.6
  Binding of Control serum LUMC to looped peptides: 0.6
[3]
  Binding of a rabbit serum to linear peptides: 0.2
  Binding of a rabbit serum to looped peptides: 0.6

## NRFLYIIKLVFLWLL
[1]
  Binding of serum 1a to linear peptides of protein M of SARS-CoV Urbani: 0.7
  Binding of serum 1b to linear peptides of protein M of SARS-CoV Urbani: 0.5
  Binding of serum 2 to linear peptides of protein M of SARS-CoV Urbani: 0.5
  Binding of serum 6 to linear peptides of protein M of SARS-CoV Urbani: 0.3
  Binding of serum 37 to linear peptides of protein M of SARS-CoV Urbani: 0.7
  Binding of serum 62 to linear peptides of protein M of SARS-CoV Urbani: 0.7
  Binding of serum London to linear peptides of protein M of SARS-CoV Urbani: 0.3
  Binding of serum SARS-green to linear peptides of protein M of SARS-CoV Urbani: 0.3
  Binding of serum SARS-yellow to linear peptides of protein M of SARS-CoV Urbani: 0.1
  Recognition of the peptide by sera of SARS-CoV infected individuals, and form (linear, looped/cyclic) in which it is recognized: recognized in looped/cyclic form
[2]
  Binding of Control Serum Blood-Bank to Looped peptides of the protein M of SARS-CoV Urbani: 0.7
  Binding of Control serum Blood-bank to linear peptides of the protein M of SARS-CoV Urbani: 0.7
  Binding of Control serum LUMC to linear peptides of the protein M of SARS-CoV Urbani: 0.3
  Binding of Control serum LUMC to looped peptides of the protein M of SARS-CoV Urbani: 0.6
[3]
  Rabbit serum linear peptides: 0.4
  Rabbit serum looped peptides: 0.3

## NRNRFLYIIKLVFLW
[1]
  Binding of serum 1a to linear peptides of protein M of SARS-CoV Urbani: 0.7
  Binding of serum 1b to linear peptides of protein M of SARS-CoV Urbani: 0.4
  Binding of serum 2 to linear peptides of protein M of SARS-CoV Urbani: 0.6
  Binding of serum 6 to linear peptides of protein M of SARS-CoV Urbani: 0.3
  Binding of serum 37 to linear peptides of protein M of SARS-CoV Urbani: 0.7
  Binding of serum 62 to linear peptides of protein M of SARS-CoV Urbani: 0.7
  Binding of serum London to linear peptides of protein M of SARS-CoV Urbani: 0.3
  Binding of serum SARS-green to linear peptides of protein M of SARS-CoV Urbani: 0.3
  Binding of serum SARS-yellow to linear peptides of protein M of SARS-CoV Urbani: 0.1
  Recognition of the peptide by sera of SARS-CoV infected individuals, and form (linear, looped/cyclic) in which it is recognized: recognized in looped/cyclic form
[2]
  Binding of Control Serum Blood-Bank to Looped peptides of the protein M of SARS-CoV Urbani: 0.8
  Binding of Control serum Blood-bank to linear peptides of the protein M of SARS-CoV Urbani: 0.7
  Binding of Control serum LUMC to linear peptides of the protein M of SARS-CoV Urbani: 0.4
  Binding of Control serum LUMC to looped peptides of the protein M of SARS-CoV Urbani: 0.7
[3]
  Rabbit serum linear peptides: 0.5
  Rabbit serum looped peptides: 0.4

## NRYRIGNYKLNTDHA
[1]
  Binding of serum 1a to linear peptides of protein M of SARS-CoV Urbani: 0.8
  Binding of serum 1a to looped/cyclic peptides of protein M of SARS-CoV Urbani: 0.8
  Binding of serum 1b to linear peptides of protein M of SARS-CoV Urbani: 0.6
  Binding of serum 1b to looped/cyclic peptides of protein M of SARS-CoV Urbani: 0.6
  Binding of serum 2 to linear peptides of protein M of SARS-CoV Urbani: 0.5
  Binding of serum 2 to looped/cyclic peptides of protein M of SARS-CoV Urbani: 0.5
  Binding of serum 6 to linear peptides of protein M of SARS-CoV Urbani: 0.3
  Binding of serum 6 to looped/cyclic peptides of protein M of SARS-CoV Urbani: 0.7
  Binding of serum 37 to linear peptides of protein M of SARS-CoV Urbani: 0.5
  Binding of serum 37 to looped/cyclic peptides of protein M of SARS-CoV Urbani: 0.6
  Binding of serum 62 to linear peptides of protein M of SARS-CoV Urbani: 0.6
  Binding of serum 62 to looped/cyclic peptides of protein M of SARS-CoV Urbani: 0.5
  Binding of serum London to linear peptides of protein M of SARS-CoV Urbani: 0.2
  Binding of serum London to looped/cyclic peptides of protein M of SARS-CoV Urbani: 0.4
  Binding of serum SARS-green to linear peptides of protein M of SARS-CoV Urbani: 0.2
  Binding of serum SARS-green to looped/cyclic peptides of protein M of SARS-CoV Urbani: 0.3
  Binding of serum SARS-yellow to linear peptides of protein M of SARS-CoV Urbani: 0.1
  Binding of serum SARS-yellow to looped/cyclic peptides of protein M of SARS-CoV Urbani: 0.9
[2]
  Binding of Control Serum Blood-Bank to Looped peptides of the protein M of SARS-CoV Urbani: 0.7
  Binding of Control serum Blood-bank to linear peptides of the protein M of SARS-CoV Urbani: 0.2
  Binding of Control serum LUMC to linear peptides of the protein M of SARS-CoV Urbani: 0.2
  Binding of Control serum LUMC to looped peptides of the protein M of SARS-CoV Urbani: 0.7
[3]
  Rabbit serum linear peptides: 0.2
  Rabbit serum looped peptides: 0.3
